Laboratory results as given in PMC7531004, “Discovery of gramicidin A analogues with altered activities by multidimensional screening of a one-bead-one-compound library” (Nature Communications, 2020).
Where a SMILES comes first, the peptide text is derived from it. [ ]: non-standard residue; d: D form. The star is where a group is joined. NHCH2CH2OH = OCCN*; For = O=C*

Key:
[1] = tested on: Streptococcus pyogenes SSI-9; experiment: Antibacterial activity assay of bead-derived peptides (three concentrations); type: cell-based; parameters: key: +++: inhibition by the 640-fold diluted peptide solution; ++: inhibition by the 160-fold diluted solution; +: inhibition by the 40-fold diluted solution; -: no inhibition; settings: S. pyogenes, bead-derived peptide solution, three concentrations
In short: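 First, each peptide stock was diluted 4- and 16-fold in DMSO; next, the three solutions were mixed with S. pyogenes SSI-9 suspension (2 × 10^5 CFU) in cation-adjusted Mueller Hinton Broth plus 5% laked horse blood; finally, plates stood 18 h at 37 °C before checking for grown-cell precipitation.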

[2] = cell viability/%
In short: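 Peptide stocks diluted 250× in growth medium; P388 cells 1 × 10^4 cells/mL final; 37 °C, 5% CO2, 92 h. WST-1 + 1-methoxy PMS, 4 h, A415. Output: % viability.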

[3] = H+/Na+ transport assay of bead-derived peptides (one-point); type: biochemical; parameters: key: relative activity; mean of two control wells = 1.00; settings: bead-derived peptide solution, EYPC/EYPG LUVs;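 also: relative to parent gramicidin A activity set to 1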
In short: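 H+/Na+ transport is monitored through pyranine fluorescence in freshly extruded LUVs after a 30-min room-temperature vortex with each library peptide at a single concentration. Signals are normalized to detergent (Triton X-100) and untreated controls.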

Row | SMILES | antibacterial activity [1] | viability [2] | H+/Na+ transport activity normalized against the value of 1 (1.00) [3]
1 | CC(C)C[C@@H](NC(=O)[C@H](C)NC(=O)CNC(=O)[C@@H](NC=O)C(C)C)C(=O)N[C@@H](C)C(=O)N[C@@H](C(=O)N[C@H](C(=O)N[C@H](CC(C)C)C(=O)N[C@@H](Cc1c[nH]c2ccccc12)C(=O)N[C@@H](C(=O)N[C@@H](Cc1c[nH]c2ccccc12)C(=O)N[C@@H](C(=O)N[C@@H](Cc1c[nH]c2ccccc12)C(=O)N[C@H](CC(C)C)C(=O)N[C@@H](Cc1c[nH]c2ccccc12)C(=O)NCCO)C(C)C)[C@H](C)O)C(C)C)C(C)C [compound 2236] (For-VGA[dL]A[dV]V[dL]W[dT]W[dV]W[dL]W-NHCH2CH2OH) | + | 100% | 1.03
2 | CC(C)C[C@@H](NC(=O)[C@H](C)NC(=O)CNC(=O)[C@@H](NC=O)C(C)C)C(=O)N[C@@H](C)C(=O)N[C@@H](C(=O)N[C@H](C(=O)N[C@@H](C(=O)N[C@@H](Cc1c[nH]c2ccccc12)C(=O)N[C@@H](C(=O)N[C@@H](Cc1c[nH]c2ccccc12)C(=O)N[C@H](CC(C)C)C(=O)N[C@@H](Cc1c[nH]c2ccccc12)C(=O)N[C@H](CC(C)C)C(=O)N[C@@H](Cc1c[nH]c2ccccc12)C(=O)NCCO)C(C)C)[C@H](C)O)C(C)C)C(C)C [compound 2290] (For-VGA[dL]A[dV]V[dT]W[dV]W[dL]W[dL]W-NHCH2CH2OH) | - | 100% | 1.14
3 | CC(C)C[C@@H](NC(=O)[C@H](C)NC(=O)CNC(=O)[C@@H](NC=O)C(C)C)C(=O)N[C@@H](C)C(=O)N[C@H](CC(C)C)C(=O)N[C@H](C(=O)N[C@H](CC(C)C)C(=O)N[C@@H](Cc1c[nH]c2ccccc12)C(=O)N[C@H](CC(C)C)C(=O)N[C@@H](Cc1c[nH]c2ccccc12)C(=O)N[C@@H](C(=O)N[C@@H](Cc1c[nH]c2ccccc12)C(=O)N[C@@H](C(=O)N[C@@H](Cc1c[nH]c2ccccc12)C(=O)NCCO)C(C)C)[C@H](C)O)C(C)C [compound 2346] (For-VGA[dL]A[dL]V[dL]W[dL]W[dT]W[dV]W-NHCH2CH2OH) | + | 100% | 1.03
4 | CNC(=O)C[C@@H](NC(=O)[C@H](Cc1c[nH]c2ccccc12)NC(=O)[C@H](NC(=O)[C@H](Cc1c[nH]c2ccccc12)NC(=O)[C@@H](CC(C)C)NC(=O)[C@H](Cc1c[nH]c2ccccc12)NC(=O)[C@H](NC(=O)[C@@H](NC(=O)[C@@H](CC(C)C)NC(=O)[C@H](C)NC(=O)[C@H](NC(=O)[C@H](C)NC(=O)CNC(=O)[C@@H](NC=O)C(C)C)C(C)C)C(C)C)C(C)C)C(C)C)C(=O)N[C@@H](Cc1c[nH]c2ccccc12)C(=O)NCCO [compound 2425] (For-VGA[dV]A[dL]V[dV]W[dL]W[dV]W[dD](NHMe)W-NHCH2CH2OH) | - | 100% | 1.07
5 | CNC(=O)C[C@@H](NC(=O)[C@H](Cc1c[nH]c2ccccc12)NC(=O)[C@@H](CC(C)C)NC(=O)[C@@H](NC(=O)[C@@H](CC(C)C)NC(=O)[C@H](C)NC(=O)[C@@H](CC(C)C)NC(=O)[C@H](C)NC(=O)CNC(=O)[C@@H](NC=O)C(C)C)C(C)C)C(=O)N[C@@H](Cc1c[nH]c2ccccc12)C(=O)N[C@@H](C(=O)N[C@@H](Cc1c[nH]c2ccccc12)C(=O)N[C@H](CC(C)C)C(=O)N[C@@H](Cc1c[nH]c2ccccc12)C(=O)NCCO)C(C)C [compound 2432] (For-VGA[dL]A[dL]V[dL]W[dD](NHMe)W[dV]W[dL]W-NHCH2CH2OH) | - | 100% | 1.06
6 | CC(C)C[C@@H](NC(=O)[C@H](C)NC(=O)CNC(=O)[C@@H](NC=O)C(C)C)C(=O)N[C@@H](C)C(=O)N[C@@H](C(=O)N[C@H](C(=O)N[C@@H](C(=O)N[C@@H](Cc1c[nH]c2ccccc12)C(=O)N[C@@H](C(=O)N[C@@H](Cc1c[nH]c2ccccc12)C(=O)N[C@@H](C(=O)N[C@@H](Cc1c[nH]c2ccccc12)C(=O)N[C@H](CC(C)C)C(=O)N[C@@H](Cc1c[nH]c2ccccc12)C(=O)NCCO)C(C)C)C(C)C)C(C)C)C(C)C)[C@H](C)O [compound 2475] (For-VGA[dL]A[dT]V[dV]W[dV]W[dV]W[dL]W-NHCH2CH2OH) | - | 100% | 1.13
7 | CC(C)C[C@@H](NC(=O)[C@H](Cc1c[nH]c2ccccc12)NC(=O)[C@@H](CC(C)C)NC(=O)[C@@H](NC(=O)[C@H](NC(=O)[C@H](C)NC(=O)[C@H](NC(=O)[C@H](C)NC(=O)CNC(=O)[C@@H](NC=O)C(C)C)C(C)C)[C@H](C)O)C(C)C)C(=O)N[C@@H](Cc1c[nH]c2ccccc12)C(=O)N[C@H](CC(C)C)C(=O)N[C@@H](Cc1c[nH]c2ccccc12)C(=O)N[C@@H](C(=O)N[C@@H](Cc1c[nH]c2ccccc12)C(=O)NCCO)C(C)C [compound 2495] (For-VGA[dV]A[dT]V[dL]W[dL]W[dL]W[dV]W-NHCH2CH2OH) | - | 100% | 1.22
8 | CC(C)C[C@@H](NC(=O)[C@H](C)NC(=O)CNC(=O)[C@@H](NC=O)C(C)C)C(=O)N[C@@H](C)C(=O)N[C@H](CC(C)C)C(=O)N[C@H](C(=O)N[C@@H](C(=O)N[C@@H](Cc1c[nH]c2ccccc12)C(=O)N[C@H](CC(C)C)C(=O)N[C@@H](Cc1c[nH]c2ccccc12)C(=O)N[C@@H](C(=O)N[C@@H](Cc1c[nH]c2ccccc12)C(=O)N[C@@H](C(=O)N[C@@H](Cc1c[nH]c2ccccc12)C(=O)NCCO)C(C)C)C(C)C)C(C)C)C(C)C [compound 2557] (For-VGA[dL]A[dL]V[dV]W[dL]W[dV]W[dV]W-NHCH2CH2OH) | ++ | 31% | 1.21
9 | CC(C)C[C@@H](NC(=O)[C@H](C)NC(=O)[C@H](NC(=O)[C@H](C)NC(=O)CNC(=O)[C@@H](NC=O)C(C)C)C(C)C)C(=O)N[C@H](C(=O)N[C@H](CC(C)C)C(=O)N[C@@H](Cc1c[nH]c2ccccc12)C(=O)N[C@H](CC(C)C)C(=O)N[C@@H](Cc1c[nH]c2ccccc12)C(=O)N[C@@H](C(=O)N[C@@H](Cc1c[nH]c2ccccc12)C(=O)N[C@H](CC(C)C)C(=O)N[C@@H](Cc1c[nH]c2ccccc12)C(=O)NCCO)[C@H](C)O)C(C)C [compound 2682] (For-VGA[dV]A[dL]V[dL]W[dL]W[dT]W[dL]W-NHCH2CH2OH) | + | 100% | 1.06
10 | CC(C)C[C@@H](NC(=O)[C@H](C)NC(=O)[C@H](NC(=O)[C@H](C)NC(=O)CNC(=O)[C@@H](NC=O)C(C)C)C(C)C)C(=O)N[C@H](C(=O)N[C@@H](C(=O)N[C@@H](Cc1c[nH]c2ccccc12)C(=O)N[C@@H](C(=O)N[C@@H](Cc1c[nH]c2ccccc12)C(=O)N[C@@H](C(=O)N[C@@H](Cc1c[nH]c2ccccc12)C(=O)N[C@H](CC(C)C)C(=O)N[C@@H](Cc1c[nH]c2ccccc12)C(=O)NCCO)[C@H](C)O)C(C)C)C(C)C)C(C)C [compound 2727] (For-VGA[dV]A[dL]V[dV]W[dV]W[dT]W[dL]W-NHCH2CH2OH) | - | 100% | 1.05
